Data: US20190327974A1, “SYNERGISTS FOR IMPROVED PESTICIDES” (priority 2017, published 2019)
Where a chain is given by its changes, count along the chain named. Marks after values point to notes of the source that are not given here.

Tests used:
[1] = target: T1, Gly137Asp LcαE7 (Gly137Asp variant of αE7 carboxylesterase) (Lucilia cuprina, UniProt Q25252, G137D); test: Inhibition of Gly137Asp αE7 (competition assay, hydrolysis of 4-nitrophenol butyrate), dose-response curves of FIG. 8; assay type: biochemical
T1 construct: GenBank number is of the wild-type parent
Method: FIG. 8 presents dose-response curves for the inhibition of Glyl37Asp αE7. Inhibition of the hydrolysis of […] was determined for phenyl boronic acid (PBA) and compounds 1-5 and 3.1-3.12. Three (technical) replicate measurements of enzyme activity were performed for each concentration of boronic acid. The concentration of boronic acid required to inhibit 50% of activity (IC50) was determined by fitting a sigmoidal dose-response curve to plots of percentage inhibition. The curve was constrained to 0 (bottom) and 100% (top) inhibition with a variable Hill slope. […]
His6-tagged proteins were expressed in BL21(DE3) E. coli (Invitrogen) at 26° C. for 18 hours. Cells were collected by centrifugation, resuspended in lysis buffer (300 mM NaCl, 10 mM imidazole, 50 mM HEPES pH 7.5) and lysed by sonication. Cell debris was pelleted by centrifugation and the soluble fraction was loaded onto a HisTrap-HP Ni-Sepharose column (GE Healthcare). Bound protein was eluted with lysis buffer supplemented with 300 mM imidazole. Fractions containing the eluted protein were concentrated with a 30 kDa molecular mass cutoff centrifuge concentrator (Amicon) and loaded onto a HiLoad 26/60 Superdex-200 size-exclusion column (GE Healthcare) pre-equilibrated with 150 mM NaCl, 20 mM HEPES pH 7.5. Eluted fractions containing the monomeric protein were pooled for enzyme inhibition assays or crystallization. Protein concentration was determined by measuring the absorbance at 280 nm with an extinction coefficient calculated using the Protparam online server (Gasteiger, E. et al. Protein identification and analysis tools on the ExPASy server. Proteomics Protoc. Handb. 571-607 (2005). doi:10.1385/1-59259-890-0:571).
(§1) Inhibition of wild-type αE7 and the Gly137Asp αE7 variant was determined by a competition assay between the native-substrate analogue 4-nitrophenol butyrate (Sigma) and the boronic acid compounds. Initially, the Michalis constant (KM) with 4-nitrophenol butyrate was measured for both enzymes to determine an appropriate concentration of substrate for use in the competition assays. Formation of the 4-nitrophenolate product of hydrolysis was monitored at 405 nm in the presence of enzyme and eight different concentrations of substrate. 4-nitrophenol butyrate was prepared in methanol to 100 mM and serially diluted 1-in-2 to achieve concentrations from 100 mM to 0.8 mM. Enzyme stocks were prepared in 4 mg/ml bovine serum albumin (Sigma) to maintain enzyme stability. Reactions were prepared by pipetting 178 μl assay buffer (100 mM NaCl, 20 mM HEPES pH 7.5) and 2 μl substrate (final concentrations of 1000 to 8 μM) into 300 μl wells of a 96-well plate. The reaction was initiated by the addition of 20 μl enzyme (final concentration 2.5 nM for wildtype αE7 and 4 nM for Gly137Asp αE7). Product formation was monitored for four minutes at room temperature using an Epoch microplate spectrophotometer (BioTek) and the initial rates of ester hydrolysis were determined by linear regression using GraphPad Prism. The Michalis constant was determined by fitting the initial rates to the Michalis-Menton equation (FIG. 10).
Enzyme inhibition with the boronic acid compounds was determined by assaying the initial rate of 4-nitrophenol butyrate hydrolysis in the presence of either neat DMSO or the boronic acid compounds in DMSO. Compounds were prepared by serially diluting 1-in-3 an initial 10 mM stock to achieve concentrations from 10 mM to 2 nM. Reactions were prepared by pipetting 178 μl assay buffer supplemented with substrate to a final concentration equal to the KM of the enzyme (15 μM for wildtype αE7 and 250 μM for Gly137Asp αE7) into wells of a 96-well plate. 2 μl neat DMSO or 2 μl serially diluted inhibitor (final concentrations of 100 μM to 20 pM) were added to the wells. The reaction was initiated by the addition of 20 μl enzyme (final concentration 0.5 nM for wildtype αE7 and 10 nM for Glyl37Asp αE7). […]

wildtype LcαE7 = target: T2, wildtype LcαE7 (Lucilia cuprina, UniProt Q25252); test: Enzyme inhibition assay with 4-nitrophenol butyrate, wild-type; assay type: biochemical
T2 sequence (Q25252 1-570): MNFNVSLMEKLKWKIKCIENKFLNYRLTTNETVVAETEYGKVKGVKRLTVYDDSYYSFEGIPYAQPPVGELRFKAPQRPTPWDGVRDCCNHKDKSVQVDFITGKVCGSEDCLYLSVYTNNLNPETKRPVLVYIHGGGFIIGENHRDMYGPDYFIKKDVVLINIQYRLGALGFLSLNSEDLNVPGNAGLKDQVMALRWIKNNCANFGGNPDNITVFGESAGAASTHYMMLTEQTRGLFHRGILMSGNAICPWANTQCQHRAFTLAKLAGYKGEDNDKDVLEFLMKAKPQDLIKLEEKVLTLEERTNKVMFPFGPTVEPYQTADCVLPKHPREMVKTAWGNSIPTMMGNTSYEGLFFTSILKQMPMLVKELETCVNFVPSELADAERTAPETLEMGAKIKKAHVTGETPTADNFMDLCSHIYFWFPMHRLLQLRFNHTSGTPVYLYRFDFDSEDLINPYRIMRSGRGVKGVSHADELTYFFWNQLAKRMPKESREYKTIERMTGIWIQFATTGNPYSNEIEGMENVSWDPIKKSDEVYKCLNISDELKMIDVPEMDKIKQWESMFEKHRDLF
Method: Wild-type LcαE7 was heterologously expressed in Escherichia coli and purified using metal ion affinity and size exclusion chromatography. The potency of the boronic acids was determined by enzymatic assays of recombinant LcαE7 with the model carboxylester substrate 4-nitrophenol butyrate.
as §1
(§2) Enzyme inhibition with the boronic acid compounds was determined by assaying the initial rate of 4-nitrophenol butyrate hydrolysis in the presence of either neat DMSO or the boronic acid compounds in DMSO. Compounds were prepared by serially diluting 1-in-3 an initial 10 mM stock to achieve concentrations from 10 mM to 2 nM. Reactions were prepared by pipetting 178 μl assay buffer supplemented with substrate to a final concentration equal to the KM of the enzyme (15 μM for wildtype αE7 and 250 μM for Gly137Asp αE7) into wells of a 96-well plate. 2 μl neat DMSO or 2 μl serially diluted inhibitor (final concentrations of 100 μM to 20 pM) were added to the wells. The reaction was initiated by the addition of 20 μl enzyme (final concentration 0.5 nM for wildtype αE7 and 10 nM for Glyl37Asp αE7). Product formation was monitored for four minutes at room temperature and the initial rates of ester hydrolysis were determined by linear regression. To determine the concentration of boronic acid compounds required to inhibit 50% of esterase activity (IC50), a four-parameter sigmoidal dose-response curve was fitted to percentage inhibition using GraphPad Prism (FIGS. 7 and 8). Ki values were determined using the Cheng-Prusoff equation assuming competitive inhibition (Yung-Chi, C. & Prusoff W. H. Relationship between the inhibition constant (KI) and the concentration of inhibitor which causes 50 percent inhibition (150) of an enzymatic reaction. Biochem. Pharmacol. 22, 3099-3108 (1973)).

Gly137Asp LcαE7 = target: T3, Gly137Asp LcαE7 (Lucilia cuprina, UniProt Q25252, G137D); test: Enzyme inhibition assay with 4-nitrophenol butyrate, Gly137Asp variant; assay type: biochemical
T3 sequence (Q25252 1-570 G137D): T2 sequence (Q25252 1-570) with G137D
Method: as §1, §2
The two most common CBE-mediated insecticide resistance mechanisms involve increased protein expression, or mutation to gain new catalytic (OP-hydrolase) functions. Compounds 1 to 5 were tested against the resistance associated Gly137Asp variant of LcαE7^17,27 (Table 1). The Glyl37Asp mutation is located in the oxyanion hole and positions a new general base in the active site to catalyze dephosphorylation of the catalytic serine. Thus, compounds that inhibit WT LcαE7 as well as this common resistance associated Glyl37Asp variant would increase the efficacy of OPs by targeting both detoxification routes. Encouraged by the activity of the boronic acids 1 to 5, the compounds were tested against the Gly137Asp variant of LcαE7 (Table 1).

[2] = target: Culex quinquefasciatus CBE (Culex quinquefasciatus, UniProt Q23734); test: Inhibition of insect CBEs, 4-NPB substrate; assay type: biochemical; conditions: n=3
Method: (§3) Assays were performed with 4-NPB as the substrate.

Anopheles gambiae CBE = test: Inhibition of insect CBEs, 4-NPB substrate; assay type: biochemical; conditions: n=3
Method: as §3

Aedes aegypti CBE = test: Inhibition of insect CBEs, 4-NPB substrate; assay type: biochemical; conditions: n=3
Method: as §3

[3] = system: Lucilia cuprina larvae, field strain Tara resistant to diazinon; test: Lucilia cuprina larval bioassay (pupation rate), field strain; assay type: in vivo
Source text: Diazinon resistance is typically associated with the Gly137Asp mutation/resistance allele. […] This is consistent with previous results showing that duplications of the chromosomal region containing αE7 have occurred, meaning that resistant strains now carry copies of both WT and Glyl37Asp LcαE7.
(§4) Two strains of L. cuprina were used: 1) a laboratory reference drug-susceptible strain, LS, derived from collections in the Australian Capital Territory over 40 years ago, with no history of exposure to insecticides; and 2) a field-collected strain, Tara, resistant to diazinon and diflubenzuron (Levot, G. W. & Sales, N. New high level resistance to diflubenzuron detected in the Australian sheep blowfly, Lucilia cuprina (Wiedemann) (Diptera: Calliphoridae). Gen. Appl. Entomol. 31, 43-46 (2002)). The LcαE7 gene was sequenced in each of the strains. Briefly, genomic DNA was prepared from 20 adult female flies from each strain using the DNeasy Blood and Tissue kit (Qiagen). PCR was performed with primers specific to the LcαE7 gene, and the product was cloned into a pGEM-T EASY vector (Promega). Eight clones of the susceptible strain and 10 clones of the resistant strain were sequenced using M13 forward and reverse primers.
The effect of compounds 2, 3, 5, 3.9 and 3.10 on the development of blowfly larvae in the presence of diazinon/malathion was assessed using a bioassay system in which larvae were allowed to develop from the first instar stage until pupation on cotton wool impregnated with diazinon/malathion over a range of concentrations, in the presence or absence of the compounds at constant concentrations (Kotze, A. C. et al. Histone deacetylase enzymes as drug targets for the control of the sheep blowfly, Lucilia cuprina. Int. J. Parasitol. Drugs Drug Resist. 5, 201-208 (2015)). Each experiment utilized 50 larvae at each diazinon/malathion concentration. Experiments were replicated three times for diazinon, and twice for malathion. The insecticidal effects were defined by measuring the pupation rate. […] Compounds were also without diazinon or malathion at 1 mg per assay.

[4] = system: Lucilia cuprina larvae, laboratory drug-susceptible strain LS; test: Lucilia cuprina larval bioassay (pupation rate), laboratory strain; assay type: in vivo; conditions: laboratory (LS) strain; pupation rate; boronic acid, where present, at 1 mg/assay
Method: Inhibitor efficacy was determined by treating larvae with diazinon over a range of concentrations, in the presence or absence of the compounds at constant concentrations, and comparing pupation rates.
as §4
Each experiment utilized 50 larvae at each diazinon/malathion concentration. Experiments were replicated three times for diazinon, and twice for malathion. The insecticidal effects were defined by measuring the pupation rate. […] Compounds were also without diazinon or malathion at 1 mg per assay.

SMILES | Ki [2] | Ki (Anopheles gambiae CBE) | Ki (Aedes aegypti CBE) | further results
OB(O)c1cc(Cl)cc(N2CCCC2)c1 [Compound 3.2] | – | – | – | IC50 [1]: 400 nM; Ki (wildtype LcαE7): 0.35 nM; Ki (Gly137Asp LcαE7): 210 nM
O=C(Nc1ccccc1Cl)c1cc(B(O)O)ccc1Cl [Compound C2] | 3600 nM | 420 nM | 37000 nM | –
OB(O)c1cc2ccc(OCc3ccccc3)cc2[nH]1 [Compound C10] | 190 nM | 80 nM | 10 nM | –
OB(O)c1ccc(COc2ccc(Cl)c3ccccc23)cc1 [Compound C21] | 140 nM | 200 nM | 10000 nM | –
CCOP(=S)(OCC)Oc1cc(C)nc(C(C)C)n1 [Dz alone, diazinon] | – | – | – | RR = resistance ratio ([3]; EC50 with the field strain/EC50 for Dz alone for the laboratory strain): 2.86 ^#; diazinon EC50 for the field strain compared to the laboratory strain ([3]; absence of the boronic acids, fold higher): 2.9 fold; Diazinon dose response EC50 ([3]; field (Tara) strain, pupation rate, boronic acid, where present, at 1 mg/assay): 2.29 μg/assay; Diazinon dose response EC50 [4]: 0.80 μg/assay
CCOC(=O)CC(SP(=S)(OC)OC)C(=O)OCC (centres unmarked) [Mal alone, malathion, reference compound] | – | – | – | Malathion dose response EC50 [4]: 2.06 μg/assay
